Assay [1] concerns the target T1, LTC4 receptor (Homo sapiens, UniProt Q9NS75).
T1 construct: expressed in transfected cells; whole cells or membrane fraction
T1 sequence (Q9NS75 1-346): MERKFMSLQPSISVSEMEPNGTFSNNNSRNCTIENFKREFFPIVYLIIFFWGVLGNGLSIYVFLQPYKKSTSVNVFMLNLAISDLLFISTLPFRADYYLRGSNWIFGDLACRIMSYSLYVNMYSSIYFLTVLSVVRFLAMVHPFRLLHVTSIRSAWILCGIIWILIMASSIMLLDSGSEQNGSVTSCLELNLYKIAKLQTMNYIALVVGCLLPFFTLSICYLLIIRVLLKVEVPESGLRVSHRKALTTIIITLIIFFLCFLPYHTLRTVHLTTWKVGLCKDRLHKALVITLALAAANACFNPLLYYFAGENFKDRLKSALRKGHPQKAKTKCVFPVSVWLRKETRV
As to the kind of experiment: Cell migration of CHO cells expressing LTC4 receptors elicited by LTC4. The settings on record: compound in upper layer, 3 nM LTC4 in lower layer. Format: cell-based.
Experimental: After culturing for 4 hours in a CO2 incubator at 37° C., the frame filter was fixed in methanol and stained with Diff-Quik staining kit (Kokusai-Shiyaku). The upper surface (the side onto which the cells were inoculated) of the filter was wiped, and after air drying, absorbance at 595 nm was measured with the plate reader (Molecular Devices).

Assay [2] has as its target T1, LTC4 receptor. The experiment in a line: Inhibition of increase of intracellular Ca++ concentration elicited by LTC4 or LTD4, CHO cells stably expressing LTC4 receptors. Type of assay: cell-based. As to the method:
After culturing for 24 hours, medium was discarded and 100 μl/well of Hanks BSS containing 4 μM Fluo-3, AM (Molecular Probe), 0.004% pluronic acid, 1% FBS, 20 mM HEPES, and 2.5 mM probenecid was added, and incubated at 37° C. for 1 hour.
The changes of intracellular Ca^++ concentration were measured using FLIPR with the same condition as in Example 6.

For assay [3], the system named is human coronary arterial smooth muscle cells. As to the kind of experiment: Increase of intracellular Ca++ concentration by LTC4 in coronary arterial smooth muscle cells. Format: cell-based. Here is the method:
The medium was discarded, and by adding 100 μl/well of Hanks BSS containing 4 μM Fluo-3, AM (Molecular Probe), 0.004% pluronic acid, 1% FBS, 20 mM HEPES, and 2.5 mM probenecid, the cells were incubated for 1 hour at 37° C. […] It is well known that the increase of intracellular Ca^++ concentration in blood vessel smooth muscle cells causes vasoconstriction (Bolton, T. B., et al. Physiol. Rev. (1979) 59, 606–718).

In assay [4] the target is T1, LTC4 receptor. As to the kind of experiment: Inhibition of [3H]-LTC4 binding, membrane fraction of CHO cells stably expressing LTC4 receptor. To be noted: 0.5×10^−9 M [3H]-LTC4; 15 μg CHO membrane fraction; 1 hour, room temperature. Here is the method:
Micro-scintillator was added to the glass filter and the radioactivity was measured by a liquid scintillation counter. […] Compound A was produced as follows.

The target of assay [5] is T2, pig LTC4 receptor (Sus scrofa, UniProt Q95N03).
T2 construct: expressed in transfected cells
T2 sequence (Q95N03 1-345): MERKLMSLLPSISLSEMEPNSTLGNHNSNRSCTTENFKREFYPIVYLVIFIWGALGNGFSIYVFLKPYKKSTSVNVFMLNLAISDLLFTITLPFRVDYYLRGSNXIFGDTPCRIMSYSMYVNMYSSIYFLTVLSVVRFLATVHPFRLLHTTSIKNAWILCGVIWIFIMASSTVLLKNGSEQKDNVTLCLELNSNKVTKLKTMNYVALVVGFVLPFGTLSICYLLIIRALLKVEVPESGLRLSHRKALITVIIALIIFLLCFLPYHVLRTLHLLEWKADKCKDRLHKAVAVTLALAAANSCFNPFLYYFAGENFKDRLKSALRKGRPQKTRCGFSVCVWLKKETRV
As to the kind of experiment: Increase of intracellular Ca++ concentration, HEK293-EBNA cells transfected with pEF-BOS-pig LTC4 receptor. Type of assay: cell-based. To be noted: Logistic regression. Here is the method:
(§1) 2.5×10^4 cells per well of HEK293-EBNA cells were inoculated to 96 well Black/clear bottom plate, collagen type I coated (BECTON DICKINSON). After culturing for 24 hours, 40 ng per well of pEF-BOS-PSECO 146 or pEF-BOS (empty vector) were transfected into the cells using FuGENE6 (Boeringer Mannheim). 24 hours after gene transfection, the medium was discarded, 100 μl per well of DMEM containing 4 μM Fluo-3, AM (Molecular Probe), 0.004% pluronic acid, and 10% FBS was added and incubated for 1 hour at 37° C. Following incubation, cells were washed four times with Hanks BSS containing 20 mM HEPES (GIBCO), then 100 μl per well of Hanks BSS containing 20 mM HEPES was added. The time course of the changes of intracellular Ca^++ concentration was measured using FLIPR (Molecular Device).
Further, the changes of intracellular Ca^++ concentration were measured using HEK293-EBNA cells under the same condition as in Example 5.

For assay [6], the target named is T3, rat LTC4 receptor (Rattus norvegicus, UniProt Q924T9).
T3 construct: expressed in transfected cells
T3 sequence (Q924T9 1-309): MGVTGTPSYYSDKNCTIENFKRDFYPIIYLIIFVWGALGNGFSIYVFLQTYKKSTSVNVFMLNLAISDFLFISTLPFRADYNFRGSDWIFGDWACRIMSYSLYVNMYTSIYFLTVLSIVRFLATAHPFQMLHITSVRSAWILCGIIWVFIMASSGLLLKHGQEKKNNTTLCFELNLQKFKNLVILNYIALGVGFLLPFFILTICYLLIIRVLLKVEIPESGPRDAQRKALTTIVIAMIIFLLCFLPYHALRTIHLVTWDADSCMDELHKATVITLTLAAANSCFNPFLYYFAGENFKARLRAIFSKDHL
The experiment in a line: Increase of intracellular Ca++ concentration, HEK293-EBNA cells transfected with pEF-BOS-rat LTC4 receptor. Format: cell-based. The settings on record: Logistic regression. As to the method:
as §1
This plasmid was designated as pEF-BOS-rat LTC4 receptor.
The changes of intracellular Ca^++ concentration were measured using HEK293-EBNA cells under the same condition as in Example 5.

Assay [7] deals with T2, pig LTC4 receptor. As to the kind of experiment: [3H]-LTC4 saturation binding, membrane fraction of COS-1 cells transfected with pEF-BOS-pig LTC4 receptor. Here is the method: 2×10^6 COS-1 cells were inoculated to a […] culture flask and cultured for 36 hours, and then, 50 μg of pEF-BOS-PSEC0146 or pEF-BOS (empty vector) was transfected using FuGENE6 (Boeringer Mannheim) Cells cultured for 36 hours following gene transfection were recovered and washed, then suspended in 20 mM Tris-HCl (pH 7.4), 5 mM EDTA and homogenized with a Polytron homogenizer. After ultracentrifugation, the homogenized cells were suspended in 50 mM HEPES (pH 7.4), 40 mM MgCl2, 1 mM EGTA as a membrane fraction. 0.5 to 14×10^−9 M of [^3H]-LTC4 (Daiichi Pure Chemicals) at final concentration was added to 5 μg of the membrane fraction, and incubated 1 hour at room temperature in 250 μl solution comprising 50 mM HEPES (pH 7.4), 40 mM MgCl2, 1 mM EGTA, 5 mM L-Serine, 10 mM Borate, 2 mM L-Cystein, and 2 mM L-Glycine. Thereafter, the membrane fraction was recovered on a glass filter using a cell harvester. Micro-scintillator was added to the glass filter and the total binding to the membrane fraction was measured by using a liquid scintillation counter. […]
First, to express the protein encoded by the cDNA, the cDNA was obtained by PCR using pig genomic DNA as the template. The nucleotide sequence of primers required for PCR was designed based on the nucleotide sequence information determined in Example 15. […]

As usually defined, the IC50 is the point on the concentration scale where inhibition reaches its midpoint. Higher therefore signals a need for much substance. One may read the EC50 as the midpoint of the concentration-response curve. Read a low EC50 as a more potent agent. The Kd is a measure of binding affinity in units of concentration.

For the compound `CCCn1c(-c2ccc3c(S(=O)(=O)Nc4onc(C)c4C)cccc3c2)nc2ccccc21` [Compound A, N-(3,4-dimethyl-5-isoxazolyl)-6-(1-propyl-1H-benzimidazol-2-yl) -1-naphthalenesulfonamide], the “inhibition of cell migration by LTC4” value in assay [1] was “inhibits dose-dependently”. For the same compound, the 50% inhibitory concentration (IC50) in assay [2] was 2300 nM; in assay [4], 1200 nM. Moreover, the “inhibition of increase of intracellular Ca++ concentration elicited by LTD4” value in assay [2] (CHO stable cells, LTD4 stimulus) is given as “inhibited dose-dependently”. In addition, the “inhibition of increase of intracellular Ca++ concentration by LTC4” value in assay [3] (5 min pre-treatment) is reported as “inhibit dose-dependently”.

In the case of `CCCCC/C=C\C\C=C/C=C/C=C/[C@@H](SC[C@H](N)C(=O)NCC(=O)O)[C@@H](O)CCCC(=O)O` [LTD4, leukotriene D4], the EC50 in assay [5] was 3.3 nM; in assay [6] it was 7.7 nM.

With `CCCCC/C=C\C\C=C/C=C/C=C/[C@@H](SC[C@H](NC(=O)CC[C@H](N)C(=O)O)C(=O)NCC(=O)O)[C@@H](O)CCCC(=O)O` [LTC4, leukotriene C4], the 50% effective concentration (EC50) turned out to be 5 nM in assay [5] and 19 nM in assay [6]. The “maximum binding (Bmax)” value in assay [7] (Scatchard analysis, COS-1 membrane fraction) is recorded as 0.25 pmol/mg protein. Further, the Kd in assay [7] (read-out: dissociation constant of LTC4 binding (Kd), Scatchard analysis, COS-1 membrane fraction) was found to be 2.89 nM. In addition, the “increase of intracellular Ca++ concentration” value in assay [3] (10^−6 to 10^−9 M LTC4) was “induce increase of the intracellular Ca^++ concentration in a dose-dependent manner”.

The values are drawn from patent publication US7217800B2, “Peptide leukotriene receptor” (Astellas Pharma Inc., priority 1999, dated 2007).
